Tested on: new-onset T1D individuals
Experiment: Clinical study of ingested interferon-α: residual C-peptide and microRNA signature of beta cell death
Type: in vivo, human
Description: In order to assess whether microRNAs could predict treatment efficacy, microRNAs were profiled from a de-identified clinical study set of samples from new-onset T1D individuals. These individuals received oral interferon-α at two doses as a therapy to preserve beta cell mass. The effect of ingested interferon-α on residual C-peptide (a measure of beta cell mass) at one year following treatment with 5000 units, 30,000 units or placebo was investigated.
Treatment groups are shown on the X-axis. The remaining beta-cell function measured as circulating C-peptide levels at 1 year (relative to baseline) are plotted on Y-axis (adjusted means, vertical bars denote 0.95 confidence intervals).

interferon-α
remaining beta-cell function measured as circulating C-peptide levels at 1 year (relative to baseline) (30,000 units ingested IFN treatment group as compared to the Control group, FIG. 13): significant preservation of islet beta cell mass | miRNA signature of beta cell death (abundance) (30,000 units ingested IFN treatment group, 12 months from study baseline): lower abundance | microRNA signature of beta cell death (individuals showing the highest preservation of beta-cell mass at one year of treatment, FIG. 14): decreased

— patent publication US20200172975A1, “Cell-Free microRNA Signatures of Pancreatic Islet Beta Cell Death” (THE UNIVERSITY OF SYDNEY, priority 2017, published 2020)
